Experiments:
Type in all cases: cell-based
IL-6 [1] = assay: IL-6 cytokine secretion by TNFα-stimulated primary human hepatic stellate cells (ELISA); details: for IL-6 cytokine secretion, per-cell normalized, fold change from plasma amino acid background: primary human hepatic stellate cells, two donors, TNFα 3 ng/mL, 12 hours
Experimental: Primary human hepatic stellate cells were obtained from Samsara Sciences and grown in Complete HSC Medium to […] confluence in T75 or T150 flasks below passage 10 were seeded into 96-well plates and incubated for 6 hours at 37° C., 5% CO2 in a humidified incubator. After 6 hours, plates were removed from the incubator washed with DPBS and pretreated (±single amino acid dropout, ±supplemental amino acid dose; see experiment for medium composition) overnight, ˜14-15 hours. After overnight pretreatment, the medium was removed from the cells, and the same pretreatment medium, now supplemented with 3 ng/mL TNFα was applied. Plates were incubated for 12 hours at 37° C., 5% CO2. After 12 hour stimulus with TNFα, supernatant was removed and frozen at −80° C. in two separate aliquots. Plates were washed and incubated with CCK-8 viability reagent (Dojindo) for 1 hour. Viability was measured on the Synergy plate reader. Immediately, the medium was removed and the plates were fixed for immunofluorescence staining.
Human CCL2/MCP1 and Human IL-6 were measured by ELISA (Human […] DuoSet ELISA, R&D Systems; Human IL-6 DuoSet ELISA, R&D Systems) at ⅕ and 1/20 dilution in 1× Reagent Diluent (Reagent Ancillary Kit 2, R&D Systems). Data were normalized to the specific per well cell density determined by Hoechst stained nuclei count.
Tables 39-42 show per-cell normalized IL-6 cytokine secretion in primary human hepatic stellate cells from two donors as a fold change from the plasma amino acid background. Statistical significance calculated by one-way ANOVA with Dunnett's multiple comparison test within each treatment group.

IL-6 [2] = assay: LPS-induced IL-6 secretion in primary human monocyte-derived macrophages (ELISA); details: for IL-6 Measurements Mean: LPS 0.15 ng/mL, baseline subtracted; for LPS-induced IL-6 secretion: macrophages, 0.15 ng/mL LPS
Experimental: (§1) Unpurified buffy coats (Research Blood Components) were carefully poured into 50 mL centrifuge tubes and diluted with room temperature Dulbecco's Phosphate Buffered Saline (dPBS) with Calcium and Magnesium (Gibco). Diluted buffy coats were further divided into four total 50 mL centrifuge tubes at 20 mL per tube. Lymphocyte Separation Medium (Corning) was carefully pipetted to the bottom of each centrifuge tube. Mixtures were centrifuged at 850× g for 32 minutes at 20° C. with 0 deceleration and acceleration.
(§2) The PBMC layer was separated from other components after centrifugation and added to new 50 mL centrifuge tube containing 25 mL dPBS. Total volume was brought up to 50 mL with dPBS and centrifuged at 600×g for 10 minutes at 20° C. with acceleration of 9, deceleration of 5. Supernatant was carefully removed from cell pellets. The cell pellets were resuspended using 10 mL dPBS. Total volume was then brought up to 50 mL using dPBS and centrifuged at 450×g for 5 min at 20° C. with acceleration of 9, deceleration of 9. The supernatant removal and cell pellet resuspension was repeated again.
(§3) The supernatant was then carefully removed from cell pellets. Cell pellets were resuspended in 10 mL dPBS without calcium or magnesium and filtered through a 70 uM cell strainer. The total PBMC number was determined using a Cellometer K2 automated cell counter. A total of 5E6 cells were saved for flow cytometric analysis. Remaining cells were centrifuged at 490×g for 5 minutes at 20° C. with acceleration of 9, deceleration of 9.
(§4) CD14+ cells were selected using EasySep™ Human CD14 Positive Selection Kit II ([…] Technologies). Cells were resuspended in cold EasySep™ Buffer ([…] Technologies) at 1×10^8 cells/mL. A total of 100 uL/mL EasySep™ Human CD14 Positive Selection Cocktail II was added to the cell suspension, mixed, and incubated at room temperature for 10 minutes. A total of 100 uL/mL RapidSpheres were added to the mixture and incubated at room temperature for 3 minutes after mixing, then RoboSep buffer was added to bring up the total volume to 10 mL. The mixture in a 15 mL tube was placed in magnet and incubated at room temperature for 3 minutes. Supernatant was discarded and 10 mL fresh EasySep™ buffer was added to 15 mL tube. The addition of RoboSep buffer, mixing, and discarding of supernatant was repeated two more times.
(§5) Negative and positive fractions were centrifuged at 490×g for 5 minutes at 20° C. with acceleration of 9, deceleration of 9, and resuspended in DMEM (Gibco) and 10% Heat Inactivated Fetal Bovine Serum (Atlanta Bio) and Penicillin/Streptomycin. Cells were counted and centrifuged again at 490× g for 5 minutes at 20° C. with acceleration of 9, deceleration of 9. After centrifugation, cell were resuspended in DMEM (Gibco) and 10% Heat Inactivated Fetal Bovine Serum (Atlanta Bio) and Penicillin/Streptomycin containing 500 U/mL […] and plated at 1-2×10^6 cells/mL on 10 cm tissue culture plates. Cells were kept in 37° C., 5% CO2 in between feedings/harvest.
(§6) Cells were fed every 3-4 days by removing media and unattached cells, centrifuging at 490× g for 5 minutes at 20° C. with acceleration of 9, deceleration of 9, and resuspending in fresh DMEM (Gibco) and 10% Heat Inactivated Fetal Bovine Serum (Atlanta Bio) and Penicillin/Streptomycin containing GM-CSF. Resuspended cells were seeded back onto 10 cm tissue culture plates and incubated at 37° C., 5% CO2. Differentiated macrophages were used for subsequent experiments.
(§7) Primary human PMBC derived macrophages were seeded on day 0 at 3.0E4 cells per well in 96-well microplates (ThermoFisher) in Dulbecco's Modified Eagle Medium (DMEM) (Gibco) supplemented with penicillin-streptomycin (Hyclone) and 10% heat inactivated fetal bovine serum (HI-FBS) (Atlanta Bio) and incubated overnight at 37° C., 5% CO2. On day 1, cells were washed once with 150 uL per well DPBS (Gibco) and treated with 75 uL of: • a. […]

TNFα = assay: LPS-induced TNFα secretion in primary human monocyte-derived macrophages (ELISA); design: TNFa Measurements Mean: unit not given here; details: for TNFa Measurements Mean: Donor 1, LPS 0.15 ng/mL; for TNFa Measurements Mean / Donor 2 TNFa Measurements Mean / Donor 3 TNFa Measurements Mean: baseline subtracted; for LPS-induced TNFα secretion: macrophages, 0.15 ng/mL LPS
Experimental: as §1, §2, §3, §4, §5, §6, §7

[3] = Donor 2, Conc. 109 μM (baseline)
[4] = Donor 3, Conc. 109 μM (baseline)
[5] = Donor 2, Conc. 749 μM (baseline)
[6] = Donor 3, Conc. 749 μM (baseline)

SMILES: N=C(N)NCCC[C@H](N)C(=O)O [Arginine, L-Arginine]
- Fold Change IL-6 Secretion Normalized Per Cell (IL-6 [1]; donor 1, Conc. 109 μM (plasma background, reference)): 1.0000
- Fold Change IL-6 Secretion Normalized Per Cell (IL-6 [1]; donor 1, Conc. 1088 μM): 0.9828
- Fold Change IL-6 Secretion Normalized Per Cell (IL-6 [1]; donor 1, Conc. 2720 μM): 1.0231
- Fold Change IL-6 Secretion Normalized Per Cell (IL-6 [1]; donor 1, Conc. 5440 μM): 0.7776
- Fold Change IL-6 Secretion Normalized Per Cell (IL-6 [1]; donor 2, Conc. 109 μM (plasma background, reference)): 1.0000
- Fold Change IL-6 Secretion Normalized Per Cell (IL-6 [1]; donor 2, Conc. 1088 μM): 0.9924
- Fold Change IL-6 Secretion Normalized Per Cell (IL-6 [1]; donor 2, Conc. 2720 μM): 0.9401
- Fold Change IL-6 Secretion Normalized Per Cell (IL-6 [1]; donor 2, Conc. 5440 μM): 0.8895
- IL-6 cytokine secretion, per-cell normalized, fold change from plasma amino acid background (IL-6 [1]): no significant effect
- IL-6 Measurements Mean (IL-6 [2]; Donor 1, Conc. 109 μM (baseline)): 0
- IL-6 Measurements Mean (IL-6 [2]; Donor 1, Conc. 1088 μM): −181.36
- IL-6 Measurements Mean (IL-6 [2]; Donor 1, Conc. 2720 μM): −186.57
- IL-6 Measurements Mean (IL-6 [2]; Donor 1, Conc. 5440 μM): 357.4394
- IL-6 Measurements Mean (IL-6 [2]; [3]): 2.37E−15
- IL-6 Measurements Mean (IL-6 [2]; Donor 2, Conc. 1088 μM): −9.701
- IL-6 Measurements Mean (IL-6 [2]; Donor 2, Conc. 2720 μM): −13.6102
- IL-6 Measurements Mean (IL-6 [2]; Donor 2, Conc. 5440 μM): −12.4164
- IL-6 Measurements Mean (IL-6 [2]; [4]): 0
- IL-6 Measurements Mean (IL-6 [2]; Donor 3, Conc. 1088 μM): 31.5786
- IL-6 Measurements Mean (IL-6 [2]; Donor 3, Conc. 2720 μM): −7.503
- IL-6 Measurements Mean (IL-6 [2]; Donor 3, Conc. 5440 μM): −6.81
- LPS-induced IL-6 secretion (IL-6 [2]; Donor 1): increased
- TNFa Measurements Mean (TNFα; Conc. 109 μM (baseline)): 0
- TNFa Measurements Mean (TNFα; Conc. 1088 μM): −24.33
- TNFa Measurements Mean (TNFα; Conc. 2720 μM): 5.12
- TNFa Measurements Mean (TNFα; Conc. 5440 μM): 62.06
- Donor 2 TNFa Measurements Mean (TNFα; [3]): 1.42E−14
- Donor 2 TNFa Measurements Mean (TNFα; Donor 2, Conc. 1088 μM): −12.7222
- Donor 2 TNFa Measurements Mean (TNFα; Donor 2, Conc. 2720 μM): −3.763
- Donor 2 TNFa Measurements Mean (TNFα; Donor 2, Conc. 5440 μM): −0.5738
- Donor 3 TNFa Measurements Mean (TNFα; [4]): 3.55E−15
- Donor 3 TNFa Measurements Mean (TNFα; Donor 3, Conc. 1088 μM): 3.131
- Donor 3 TNFa Measurements Mean (TNFα; Donor 3, Conc. 2720 μM): −0.9669
- Donor 3 TNFa Measurements Mean (TNFα; Donor 3, Conc. 5440 μM): −1.767

SMILES: NC(=O)CC[C@H](N)C(=O)O [Glutamine, L-Glutamine]
- Fold Change IL-6 Secretion Normalized Per Cell (IL-6 [1]; donor 1, Conc. 562 μM (plasma background, reference)): 1.0000
- Fold Change IL-6 Secretion Normalized Per Cell (IL-6 [1]; donor 2, Conc. 562 μM (plasma background, reference)): 1.0000
- Fold Change IL-6 Secretion Normalized Per Cell (IL-6 [1]; donor 2, Conc. 3747 μM): 0.7100
- IL-6 cytokine secretion, per-cell normalized, fold change from plasma amino acid background (IL-6 [1]): significantly reduced
- IL-6 Measurements Mean (IL-6 [2]; Donor 1, Conc. 749 μM (baseline)): 0
- IL-6 Measurements Mean (IL-6 [2]; Donor 1, Conc. 3747 μM): 291.5443
- IL-6 Measurements Mean (IL-6 [2]; Donor 1, Conc. 11242 μM): 397.1745
- IL-6 Measurements Mean (IL-6 [2]; Donor 1, Conc. 22484 μM): 440.1437
- IL-6 Measurements Mean (IL-6 [2]; [5]): 2.37E−15
- IL-6 Measurements Mean (IL-6 [2]; Donor 2, Conc. 3747 μM): 22.52
- IL-6 Measurements Mean (IL-6 [2]; Donor 2, Conc. 11242 μM): 63.31
- IL-6 Measurements Mean (IL-6 [2]; Donor 2, Conc. 22484 μM): 34.39
- IL-6 Measurements Mean (IL-6 [2]; [6]): 3.79E−14
- IL-6 Measurements Mean (IL-6 [2]; Donor 3, Conc. 3747 μM): 25.35
- IL-6 Measurements Mean (IL-6 [2]; Donor 3, Conc. 11242 μM): 98.4903
- IL-6 Measurements Mean (IL-6 [2]; Donor 3, Conc. 22484 μM): 108.5158
- LPS-induced IL-6 secretion (IL-6 [2]; Donor 1): increased
- LPS-induced IL-6 secretion (IL-6 [2]; Donor 2): increased
- LPS-induced IL-6 secretion (IL-6 [2]; Donor 3): significantly increased
- TNFa Measurements Mean (TNFα; Conc. 749 μM (baseline)): 0
- TNFa Measurements Mean (TNFα; Conc. 3747 μM): −45.7
- TNFa Measurements Mean (TNFα; Conc. 11242 μM): −65.24
- TNFa Measurements Mean (TNFα; Conc. 22484 μM): −103.07
- Donor 2 TNFa Measurements Mean (TNFα; [5]): −9.5E−15
- Donor 2 TNFa Measurements Mean (TNFα; Donor 2, Conc. 3747 μM): 9.338
- Donor 2 TNFa Measurements Mean (TNFα; Donor 2, Conc. 11242 μM): 20.04
- Donor 2 TNFa Measurements Mean (TNFα; Donor 2, Conc. 22484 μM): 11.5
- Donor 3 TNFa Measurements Mean (TNFα; [6]): 0
- Donor 3 TNFa Measurements Mean (TNFα; Donor 3, Conc. 3747 μM): 1.936
- Donor 3 TNFa Measurements Mean (TNFα; Donor 3, Conc. 11242 μM): 18
- Donor 3 TNFa Measurements Mean (TNFα; Donor 3, Conc. 22484 μM): 29.14
- LPS-induced TNFα secretion (TNFα; Donor 2): increased
- LPS-induced TNFα secretion (TNFα; Donor 3): increased
